Structures are written as SMILES. Converted amounts (≈) assume the structure as drawn.

One experiment concerns Trypanosoma brucei brucei. Briefly: Antitrypanosomal activity against Trypanosoma brucei brucei TC427 trypomastigotes after 24 hrs by AlamarBlue assay. The format is functional. Conditions: TC427, 24 h.
Regarding `COc1cc2c3cc1Oc1cc(ccc1O)C[C@@H]1c4c(cc(OC)c(O)c4Oc4ccc(cc4)C[C@H]3N(C)CC2)CCN1C`, it took 3.8 µM (≈ 2.26 µg/mL) to inhibit growth (MIC). This lies in the single-digit micromolar range.
The same measure, in the same setting: then `COc1cc2c3cc1Oc1cc(ccc1O)C[C@@H]1c4c(cc(OC)c(OC)c4Oc4ccc(cc4)C[C@H]3N(C)CC2)CCN1C`, with 2.6 µM (≈ 1.58 µg/mL); and `COc1cc2c3cc1Oc1cc(ccc1OC(C)=O)C[C@@H]1c4c(cc(OC)c(OC)c4Oc4ccc(cc4)C[C@H]3N(C)CC2)CCN1C`, with 2.3 µM (≈ 1.5 µg/mL).
With `COc1cc2c3cc1Oc1cc(cc([N+](=O)[O-])c1O)C[C@@H]1c4c(cc(OC)c(OC)c4Oc4ccc(cc4)C[C@H]3N(C)CC2)CCN1C`, it took 2.2 µM (≈ 1.44 µg/mL) to inhibit growth (MIC).

The test system of the next experiment is Trypanosoma brucei brucei. Briefly: Antitrypanosomal activity against Trypanosoma brucei brucei. The class given is functional.
Settings: not given
In the case of `COc1ccc2c(c1OC)C(C(Cl)(Cl)Cl)N1CCc3cc4c(cc3C1=C2)OCO4` (stereo not given), 27.6 µM (≈ 12.6 µg/mL) was the least that counted as inhibitory (MIC).
The same measure, in the same setting: then `COc1ccc2cc3[n+](cc2c1OC)CCc1cc2c(cc1-3)OCO2` [BERBERINE], with 74.4 µM.

The next experiment concerns Trypanosoma brucei brucei. The experiment is described as follows: Antitrypanosomal activity against Trypanosoma brucei brucei TC427 trypomastigotes assessed percent viability at 20 ug/ml after 24 hrs by AlamarBlue assay relative to DMSO. The class given is functional.
Settings: not given
Regarding `COc1cc2c3cc1Oc1cc(ccc1O)C[C@@H]1c4c(cc(OC)c(O)c4Oc4ccc(cc4)C[C@H]3N(C)CC2)CCN1C`, the Activity is recorded as 1.9%.
The same measure, in the same setting: then `COc1cc2c3cc1Oc1cc(ccc1O)C[C@@H]1c4c(cc(OC)c(OC)c4Oc4ccc(cc4)C[C@H]3N(C)CC2)CCN1C`, with 1.6%; and `COc1cc2c3cc1Oc1cc(ccc1OC(C)=O)C[C@@H]1c4c(cc(OC)c(OC)c4Oc4ccc(cc4)C[C@H]3N(C)CC2)CCN1C`, with 1.4%; and `COc1cc2c3cc1Oc1cc(cc([N+](=O)[O-])c1O)C[C@@H]1c4c(cc(OC)c(OC)c4Oc4ccc(cc4)C[C@H]3N(C)CC2)CCN1C`, with 1.5%.

Values taken from ChEMBL document CHEMBL4627390, “Effect of Temperature on 1H NMR Spectra, Antitrypanosomal Activity, Conformational Analysis, and Molecular Docking of Curine Derivatives from Berberis brevissima” (2020).
